Source: the supplement of paper PMC10307832

Key:
[1] = compound: C1=CC2=C(C=C(C(=C2N=C1)O)N=NC3=CC4=C(C=C3)C=C(C=C4)S(=O)(=O)O)S(=O)(=O)O + CC1(C)CCC(c2ccc(Cl)cc2)=C(CN2CCN(c3ccc(C(=O)NS(=O)(=O)c4ccc(N[C@H](CCN5CCOCC5)CSc5ccccc5)c(S(=O)(=O)C(F)(F)F)c4)cc3)CC2)C1 [Navitoclax] (partner 0.5 µM); assay: relative viability (nuclei count vs DMSO), 5 days (fraction); higher = more cells survive
How it was run: (§1)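 Five library-drug doses in √10 steps were combined with a fixed anchor-drug dose, or a single drug was given alone, by pin tool to lung cancer cell lines in 1536-well plates the day after seeding. Nuclei were stained and counted after 5 days. Relative viability is the nuclei count in treated wells over that in vehicle wells, taken as the median of duplicate plates.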

AT-7519 + Foretinib = compound: O=C(NC1CCNCC1)c1n[nH]cc1NC(=O)c1c(Cl)cccc1Cl [AT-7519] + COc1cc2c(Oc3ccc(NC(=O)C4(C(=O)Nc5ccc(F)cc5)CC4)cc3F)ccnc2cc1OCCCN1CCOCC1 [Foretinib] (partner 0.25 µM); assay: as above
How it was run: as §1

Cell Line	relative viability ([1]; first compound 0.08 µM)	relative viability ([1]; first compound 0.253 µM)	relative viability ([1]; first compound 0.8 µM)	relative viability ([1]; first compound 2.53 µM)	relative viability ([1]; first compound 8 µM)	relative viability (AT-7519 + Foretinib; first compound 0.01 µM)	relative viability (AT-7519 + Foretinib; first compound 0.03162 µM)	relative viability (AT-7519 + Foretinib; first compound 0.3162 µM)	relative viability (AT-7519 + Foretinib; first compound 1 µM)
SK-MES-1	1.26	1.16	1.31	1.26	1.19	0.907	1.09	0.735	0.919
HCC-366	1.07	0.839	0.977	1.07	1.07	0.994	0.896	0.941	0.717
201T	1.24	1.21	1.22	1.27	1.16	1.2	1.05	–	0.809
HCC-827	1	0.977	0.995	1.03	1	1.03	0.991	1.03	0.964
NCI-H647	1.19	0.955	0.938	1.24	1.23	1.27	1.21	0.985	0.889
NCI-H2023	1.03	1.01	0.965	0.984	0.973	0.962	0.914	1.05	0.459
NCI-H520	1.17	0.99	1.07	1.07	1.13	0.922	0.624	0.718	0.593
RERF-LC-KJ	1.12	1.01	0.963	1.05	0.877	0.939	0.813	0.879	0.921
A-427	1.06	1.04	0.83	1.12	1.02	1.16	0.968	1.06	0.384
NCI-H441	0.706	0.573	–	0.479	0.431	1.04	1.01	0.949	0.63
NCI-H1703	1.02	1.16	1.12	1.27	1.13	0.335	0.317	0.353	0.331
NCI-H1792	0.712	0.578	0.598	0.623	0.632	–	–	–	–
Calu-6	0.848	0.916	0.769	0.952	0.802	0.903	0.917	0.865	0.641
SK-LU-1	1.15	0.947	0.747	0.732	0.801	0.803	0.794	0.88	0.433
PC-3 [JPC-3]	0.888	0.748	0.854	0.722	0.725	1.03	1.05	1.03	1.06
EMC-BAC-2	1.45	1.11	1.13	1.2	1.11	0.977	0.998	1.02	0.794
LK-2	1.01	0.797	0.888	0.79	0.687	1.04	1.16	–	0.95
NCI-H2126	0.882	0.792	0.845	0.935	0.832	1.08	1.24	0.838	1.12
NCI-H3122	0.98	1.04	0.996	1.03	1.04	1.07	0.968	0.983	0.465
NCI-H1975	1.3	1.13	1.07	1.26	0.979	0.982	0.953	0.863	0.189
NCI-H1944	1.13	0.982	0.992	1.06	0.991	0.899	0.855	0.84	0.662
LU99A	0.815	0.913	0.8	0.813	0.742	0.873	0.771	0.801	0.556
SW 1573	1.01	0.971	1.03	0.964	0.977	0.797	0.918	0.722	0.543
NCI-H2347	0.898	0.738	0.809	0.917	0.391	0.738	0.902	0.8	0.819
NCI-H2009	1.19	1.1	1.08	1.14	1.18	1.33	1.18	1.27	0.686
HCC-15	0.754	0.693	0.692	0.693	0.705	1.11	0.941	0.914	0.403

Cell Line	relative viability ([1]; first compound 0.08 µM)	relative viability ([1]; first compound 0.253 µM)	relative viability ([1]; first compound 0.8 µM)	relative viability ([1]; first compound 2.53 µM)	relative viability ([1]; first compound 8 µM)	relative viability (AT-7519 + Foretinib; first compound 0.01 µM)	relative viability (AT-7519 + Foretinib; first compound 0.03162 µM)	relative viability (AT-7519 + Foretinib; first compound 0.3162 µM)	relative viability (AT-7519 + Foretinib; first compound 1 µM)
HCC-44	1.03	0.863	1.01	1.02	0.969	–	–	–	–
COR-L23	1	0.969	1.06	1.06	0.612	1.19	0.799	0.992	0.507
HCC-78	0.776	0.667	0.879	0.826	0.757	0.564	0.563	0.597	0.575
NCI-H1299	1.09	1.05	0.976	1.08	1.06	1.13	1.06	1.1	1.15
NCI-H727	0.358	0.378	0.415	0.453	0.49	1.14	0.691	0.769	0.297
NCI-H2087	0.926	0.878	0.868	0.889	0.948	1.14	1.09	1.07	0.295
BEN	0.0579	0.0527	0.0545	0.0678	0.0519	0.719	0.636	0.922	0.8
LCLC-103H	–	–	–	–	–	0.773	0.704	0.879	0.677
EKVX	0.985	0.868	0.867	0.98	1.02	0.75	0.902	0.996	0.773
LXF-289	1	0.928	0.894	0.998	0.919	0.964	1	0.943	0.877
ABC-1	–	–	–	–	–	0.937	1.09	0.962	0.541
NCI-H650	–	–	–	–	–	1.04	0.923	1.01	1.08
NCI-H1650	1.36	1.27	1.28	1.2	1.12	1.15	1.12	0.914	0.295
NCI-H2085	1.2	1.14	0.98	1.12	1.18	0.932	0.84	0.888	0.874
NCI-H1793	0.48	0.364	–	0.545	0.557	0.679	0.646	0.726	0.488
LC-2-ad	0.516	0.517	0.507	0.402	0.521	0.975	0.984	0.85	0.452
COR-L 105	0.905	0.7	0.779	0.75	0.843	1.17	1.01	1.2	0.525
NCI-H1355	1.03	0.944	0.913	1.03	0.96	0.906	0.989	1.02	0.854
H3255	0.502	0.477	0.487	0.604	0.646	0.901	0.876	0.906	0.794
NCI-H1993	1.05	0.913	1.05	0.893	1.01	0.786	0.842	0.809	0.594
NCI-H1734	1.13	0.86	0.784	0.877	0.884	0.897	0.809	0.718	0.429
HOP-62	1.1	1.03	1.12	1.07	1.1	1.11	1.16	1.04	0.977
LOU-NH91	0.72	0.672	0.704	0.723	0.687	0.876	0.943	0.976	0.821
ChaGo-K-1	0.933	0.955	0.968	1.06	1	0.931	0.845	0.967	0.733
NCI-H2228	1.09	0.801	0.953	0.577	0.874	0.833	0.789	0.814	0.595
PC-14	1.02	0.973	0.982	1.05	1.01	0.889	0.856	0.928	0.915

Cell Line	relative viability ([1]; first compound 0.08 µM)	relative viability ([1]; first compound 0.253 µM)	relative viability ([1]; first compound 0.8 µM)	relative viability ([1]; first compound 2.53 µM)	relative viability ([1]; first compound 8 µM)	relative viability (AT-7519 + Foretinib; first compound 0.01 µM)	relative viability (AT-7519 + Foretinib; first compound 0.03162 µM)	relative viability (AT-7519 + Foretinib; first compound 0.3162 µM)	relative viability (AT-7519 + Foretinib; first compound 1 µM)
NCI-H1437	1.08	1.08	1.11	1.16	1.08	1.3	1.32	1.24	1.01
NCI-H460	1.2	1.09	1.1	1.11	1.04	1.05	0.821	1.05	0.233
NCI-H1666	0.87	0.91	0.962	1.14	0.842	0.839	0.77	0.927	0.647
SW 900	–	–	–	–	–	0.792	0.68	0.858	0.442
NCI-H1651	1.04	0.932	1.14	1.15	0.991	0.855	0.786	0.803	0.683
NCI-H1755	1.06	0.963	0.977	0.993	0.726	0.947	0.944	0.813	0.878
NCI-H661	–	–	–	–	–	1.05	0.875	1.05	0.468
HARA	1.15	1.15	1.18	1.14	1.11	1.07	0.638	0.906	0.591
NCI-H596	0.946	0.973	1.06	0.964	1.01	0.922	0.834	0.897	0.731
NCI-H1563	–	–	–	–	–	0.846	0.867	0.948	0.957
NCI-H23	1.09	0.742	0.936	0.89	1.01	0.928	0.981	0.887	0.461
A549	1.18	1.16	1.27	1.17	0.934	0.925	0.984	0.852	0.845
LCLC-97TM1	–	0.224	–	0.509	0.41	0.859	0.946	0.817	0.437
EPLC-272H	1.22	1.11	1.01	1.24	1.23	0.753	0.512	0.622	0.28
NCI-H2342	–	–	–	–	–	1.02	0.972	0.977	0.965
NCI-H1915	0.818	0.764	0.835	0.765	0.768	1.07	1.1	1.07	0.807
NCI-H2405	0.86	0.746	0.959	0.993	0.788	1.04	1.11	1.01	0.628
NCI-H322M	1.35	1.22	1.19	1.16	1.22	1.01	0.932	0.511	0.456
NCI-H2170	0.628	0.477	0.544	0.637	0.707	1.09	1.03	1.04	0.958
NCI-H1623	–	–	–	–	–	0.86	0.834	0.997	0.711
NCI-H1395	1.4	1.26	1.23	1.27	0.924	0.991	1.12	0.961	0.786
IA-LM	0.769	0.885	0.819	0.75	0.694	1.25	1.53	1.08	0.918
NCI-H358	–	–	–	–	–	0.646	0.496	0.492	0.194
NCI-H838	1.24	1.23	1.17	1.09	1.2	1.07	1.02	0.886	0.527
CAL-12T	1.2	1.45	1.14	1.5	1.35	1.17	1.19	0.814	0.178
